In ChEMBL document CHEMBL1201862, “PubChem BioAssay data set” (2004):
Calls of active or inactive are those of the source.

Tests used:
[1] = molecular target: Serine/threonine-protein kinase Nek4 (Homo sapiens, UniProt P51957); assay type: functional
[2] = molecular target: Calcium/calmodulin-dependent protein kinase type 1 (Homo sapiens, UniProt Q14012); assay type: functional
[3] = molecular target: 5'-AMP-activated protein kinase catalytic subunit alpha-1 (Homo sapiens, UniProt Q13131); assay type: functional
[4] = molecular target: Serine/threonine-protein kinase DCLK1 (Homo sapiens, UniProt O15075); assay type: functional;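 further: affinity for DCLK1 (listed as DCAMKL1) measured as one member of a kinome-wide kinase profiling panel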
[5] = molecular target: RAC-alpha serine/threonine-protein kinase (Homo sapiens, UniProt P31749); assay type: functional;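 further: AKT1 affinity measured as one member of a kinome-wide kinase profiling panel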
[6] = molecular target: Protein kinase C zeta type (Homo sapiens, UniProt Q05513); assay type: functional;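 further: measured as one member of a broad kinase profiling panel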
[7] = molecular target: Serine/threonine-protein kinase PLK4 (Homo sapiens, UniProt O00444); assay type: functional;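 further: PLK4 measured as one member of a kinome-wide kinase profiling panel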
Serine/threonine-protein kinase PLK4, sequence (O00444 whole entry): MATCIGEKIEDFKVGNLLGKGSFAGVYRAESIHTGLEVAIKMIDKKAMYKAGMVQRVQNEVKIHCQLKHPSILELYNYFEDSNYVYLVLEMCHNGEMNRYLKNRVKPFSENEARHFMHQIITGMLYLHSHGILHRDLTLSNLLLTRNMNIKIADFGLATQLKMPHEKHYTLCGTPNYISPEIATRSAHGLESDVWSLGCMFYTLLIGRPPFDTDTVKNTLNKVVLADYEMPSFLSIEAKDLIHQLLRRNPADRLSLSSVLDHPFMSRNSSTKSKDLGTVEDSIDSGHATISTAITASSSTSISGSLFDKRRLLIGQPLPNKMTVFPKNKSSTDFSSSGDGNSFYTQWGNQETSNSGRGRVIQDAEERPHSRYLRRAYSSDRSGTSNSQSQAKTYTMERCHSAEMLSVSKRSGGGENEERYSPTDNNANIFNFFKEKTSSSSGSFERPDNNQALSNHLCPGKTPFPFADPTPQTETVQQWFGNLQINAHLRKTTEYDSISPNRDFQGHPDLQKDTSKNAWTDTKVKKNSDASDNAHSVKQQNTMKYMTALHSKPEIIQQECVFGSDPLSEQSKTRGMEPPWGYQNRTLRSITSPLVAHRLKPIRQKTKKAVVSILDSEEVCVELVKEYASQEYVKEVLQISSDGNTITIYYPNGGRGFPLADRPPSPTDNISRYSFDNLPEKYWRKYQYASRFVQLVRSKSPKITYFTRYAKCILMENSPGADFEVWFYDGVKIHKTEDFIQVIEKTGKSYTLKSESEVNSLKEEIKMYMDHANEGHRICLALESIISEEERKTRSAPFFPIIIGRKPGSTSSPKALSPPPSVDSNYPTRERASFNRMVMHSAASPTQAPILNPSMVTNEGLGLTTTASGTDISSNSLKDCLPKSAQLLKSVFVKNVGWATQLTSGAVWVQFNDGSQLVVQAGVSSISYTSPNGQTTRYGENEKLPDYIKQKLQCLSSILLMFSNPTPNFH

[8] = molecular target: Serine/threonine-protein kinase TBK1 (Homo sapiens, UniProt Q9UHD2); test: Navigating the Kinome. Panel member name: TBK1; assay type: functional
[9] = molecular target: Serine/threonine-protein kinase pim-3 (Homo sapiens, UniProt Q86V86); assay type: functional;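 further: value obtained as one member of a broad kinase panel profiling effort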
[10] = molecular target: Homeodomain-interacting protein kinase 2 (Homo sapiens, UniProt Q9H2X6); assay type: functional;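 further: measured within a kinome-wide kinase profiling panel, HIPK2 being one panel member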
[11] = molecular target: Aurora kinase A (Homo sapiens, UniProt O14965); assay type: functional;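 further: value from the Navigating the Kinome kinase panel profiling, panel entry STK6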
[12] = molecular target: Inhibitor of nuclear factor kappa-B kinase subunit epsilon (Homo sapiens, UniProt Q14164); test: Navigating the Kinome. Panel member name: IKBKE; assay type: functional
[13] = molecular target: Serine/threonine-protein kinase N2 (Homo sapiens, UniProt Q16513); assay type: functional
[14] = molecular target: Cyclin-dependent kinase 1 (Homo sapiens, UniProt P06493); assay type: functional;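 further: Kinome-wide panel profiling, with the target listed as panel member CDC2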
Cyclin-dependent kinase 1, sequence (P06493 whole entry): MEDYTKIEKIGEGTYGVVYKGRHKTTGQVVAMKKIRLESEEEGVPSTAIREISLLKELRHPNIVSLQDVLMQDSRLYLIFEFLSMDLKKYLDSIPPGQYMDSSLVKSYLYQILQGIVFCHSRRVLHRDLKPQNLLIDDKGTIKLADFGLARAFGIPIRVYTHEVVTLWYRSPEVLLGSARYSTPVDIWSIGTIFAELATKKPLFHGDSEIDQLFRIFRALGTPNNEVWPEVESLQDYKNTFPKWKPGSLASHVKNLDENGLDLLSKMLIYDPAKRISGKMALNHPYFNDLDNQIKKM

[15] = molecular target: Dual specificity tyrosine-phosphorylation-regulated kinase 1B (Homo sapiens, UniProt Q9Y463); test: Navigating the Kinome. Panel member name: DYRK1B; assay type: functional
[16] = molecular target: Casein kinase II subunit alpha (Homo sapiens, UniProt P68400); assay type: functional
Casein kinase II subunit alpha, sequence (P68400 whole entry): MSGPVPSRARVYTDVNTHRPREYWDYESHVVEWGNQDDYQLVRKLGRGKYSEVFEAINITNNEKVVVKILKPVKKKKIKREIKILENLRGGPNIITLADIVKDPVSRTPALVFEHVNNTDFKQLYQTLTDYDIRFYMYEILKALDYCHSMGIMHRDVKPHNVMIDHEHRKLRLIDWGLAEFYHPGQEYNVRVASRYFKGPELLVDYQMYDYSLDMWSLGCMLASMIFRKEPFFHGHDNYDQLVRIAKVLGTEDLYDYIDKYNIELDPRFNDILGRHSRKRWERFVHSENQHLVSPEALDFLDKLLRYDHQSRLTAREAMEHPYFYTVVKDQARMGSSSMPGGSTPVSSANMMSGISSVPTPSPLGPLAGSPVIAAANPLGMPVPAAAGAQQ

[17] = molecular target: cAMP-dependent protein kinase catalytic subunit alpha (Homo sapiens, UniProt P17612); assay type: functional
[18] = molecular target: Serine/threonine-protein kinase pim-2 (Homo sapiens, UniProt Q9P1W9); assay type: functional;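 further: value comes from a broad kinase panel profiling study in which PIM2 was one of the panel members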
[19] = molecular target: Tyrosine-protein kinase Fer (Homo sapiens, UniProt P16591); assay type: functional;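 further: FER tested as one member of a kinome panel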
Tyrosine-protein kinase Fer, sequence (P16591 whole entry): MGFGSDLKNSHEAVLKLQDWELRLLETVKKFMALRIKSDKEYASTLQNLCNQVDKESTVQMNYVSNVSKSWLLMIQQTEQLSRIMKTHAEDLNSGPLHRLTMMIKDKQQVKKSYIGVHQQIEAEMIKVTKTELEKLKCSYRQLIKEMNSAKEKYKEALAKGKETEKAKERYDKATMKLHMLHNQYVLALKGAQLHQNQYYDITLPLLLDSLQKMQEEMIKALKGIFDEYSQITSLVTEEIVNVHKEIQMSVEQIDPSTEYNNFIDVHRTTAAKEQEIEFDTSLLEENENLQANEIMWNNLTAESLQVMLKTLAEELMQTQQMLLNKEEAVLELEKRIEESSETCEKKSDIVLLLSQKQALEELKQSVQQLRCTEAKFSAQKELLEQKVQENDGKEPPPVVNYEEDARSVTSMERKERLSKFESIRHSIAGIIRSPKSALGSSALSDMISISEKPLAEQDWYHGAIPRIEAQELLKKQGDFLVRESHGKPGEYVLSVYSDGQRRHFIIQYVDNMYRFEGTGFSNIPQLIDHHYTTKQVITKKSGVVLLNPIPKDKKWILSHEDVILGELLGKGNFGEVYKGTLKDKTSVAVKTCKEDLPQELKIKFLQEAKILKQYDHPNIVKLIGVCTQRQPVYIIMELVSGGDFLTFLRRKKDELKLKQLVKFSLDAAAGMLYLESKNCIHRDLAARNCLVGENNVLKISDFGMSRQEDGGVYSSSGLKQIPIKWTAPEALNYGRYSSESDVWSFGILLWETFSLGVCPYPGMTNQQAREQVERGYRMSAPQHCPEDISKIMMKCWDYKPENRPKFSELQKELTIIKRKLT

[20] = molecular target: SRSF protein kinase 1 (Homo sapiens, UniProt Q96SB4); assay type: functional;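 further: measured as one member of a kinome-wide kinase profiling panel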
[21] = molecular target: Cyclin-dependent kinase 2 (Homo sapiens, UniProt P24941); assay type: functional;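 further: CDK2 measured as one member of a broad kinome profiling panel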
[22] = molecular target: Rho-associated protein kinase 1 (Homo sapiens, UniProt Q13464); assay type: functional;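 further: measured within a broad kinome-wide panel profiling many kinases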
[23] = molecular target: MAP kinase-activated protein kinase 5 (Homo sapiens, UniProt Q8IW41); assay type: functional;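 further: measured as one member of a kinome panel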
[24] = molecular target: Homeodomain-interacting protein kinase 4 (Homo sapiens, UniProt Q8NE63); assay type: functional
[25] = molecular target: Glycogen synthase kinase-3 beta (Homo sapiens, UniProt P49841); assay type: functional;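 further: value comes from a broad kinome profiling panel, with GSK3B as the panel member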
[26] = molecular target: Activin receptor type-1 (Homo sapiens, UniProt Q04771); test: Navigating the Kinome. Panel member name: ACVR1; assay type: functional
[27] = molecular target: Cyclin-dependent kinase 8 (Homo sapiens, UniProt P49336); test: Navigating the Kinome. Panel member name: CDK8; assay type: functional
[28] = molecular target: Tyrosine-protein kinase Srms (Homo sapiens, UniProt Q9H3Y6); assay type: functional;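 further: SRMS measured as one member of a kinome-wide kinase profiling panel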
[29] = molecular target: Serine/threonine-protein kinase MRCK alpha (Homo sapiens, UniProt Q5VT25); assay type: functional
Serine/threonine-protein kinase MRCK alpha, sequence (Q5VT25 whole entry): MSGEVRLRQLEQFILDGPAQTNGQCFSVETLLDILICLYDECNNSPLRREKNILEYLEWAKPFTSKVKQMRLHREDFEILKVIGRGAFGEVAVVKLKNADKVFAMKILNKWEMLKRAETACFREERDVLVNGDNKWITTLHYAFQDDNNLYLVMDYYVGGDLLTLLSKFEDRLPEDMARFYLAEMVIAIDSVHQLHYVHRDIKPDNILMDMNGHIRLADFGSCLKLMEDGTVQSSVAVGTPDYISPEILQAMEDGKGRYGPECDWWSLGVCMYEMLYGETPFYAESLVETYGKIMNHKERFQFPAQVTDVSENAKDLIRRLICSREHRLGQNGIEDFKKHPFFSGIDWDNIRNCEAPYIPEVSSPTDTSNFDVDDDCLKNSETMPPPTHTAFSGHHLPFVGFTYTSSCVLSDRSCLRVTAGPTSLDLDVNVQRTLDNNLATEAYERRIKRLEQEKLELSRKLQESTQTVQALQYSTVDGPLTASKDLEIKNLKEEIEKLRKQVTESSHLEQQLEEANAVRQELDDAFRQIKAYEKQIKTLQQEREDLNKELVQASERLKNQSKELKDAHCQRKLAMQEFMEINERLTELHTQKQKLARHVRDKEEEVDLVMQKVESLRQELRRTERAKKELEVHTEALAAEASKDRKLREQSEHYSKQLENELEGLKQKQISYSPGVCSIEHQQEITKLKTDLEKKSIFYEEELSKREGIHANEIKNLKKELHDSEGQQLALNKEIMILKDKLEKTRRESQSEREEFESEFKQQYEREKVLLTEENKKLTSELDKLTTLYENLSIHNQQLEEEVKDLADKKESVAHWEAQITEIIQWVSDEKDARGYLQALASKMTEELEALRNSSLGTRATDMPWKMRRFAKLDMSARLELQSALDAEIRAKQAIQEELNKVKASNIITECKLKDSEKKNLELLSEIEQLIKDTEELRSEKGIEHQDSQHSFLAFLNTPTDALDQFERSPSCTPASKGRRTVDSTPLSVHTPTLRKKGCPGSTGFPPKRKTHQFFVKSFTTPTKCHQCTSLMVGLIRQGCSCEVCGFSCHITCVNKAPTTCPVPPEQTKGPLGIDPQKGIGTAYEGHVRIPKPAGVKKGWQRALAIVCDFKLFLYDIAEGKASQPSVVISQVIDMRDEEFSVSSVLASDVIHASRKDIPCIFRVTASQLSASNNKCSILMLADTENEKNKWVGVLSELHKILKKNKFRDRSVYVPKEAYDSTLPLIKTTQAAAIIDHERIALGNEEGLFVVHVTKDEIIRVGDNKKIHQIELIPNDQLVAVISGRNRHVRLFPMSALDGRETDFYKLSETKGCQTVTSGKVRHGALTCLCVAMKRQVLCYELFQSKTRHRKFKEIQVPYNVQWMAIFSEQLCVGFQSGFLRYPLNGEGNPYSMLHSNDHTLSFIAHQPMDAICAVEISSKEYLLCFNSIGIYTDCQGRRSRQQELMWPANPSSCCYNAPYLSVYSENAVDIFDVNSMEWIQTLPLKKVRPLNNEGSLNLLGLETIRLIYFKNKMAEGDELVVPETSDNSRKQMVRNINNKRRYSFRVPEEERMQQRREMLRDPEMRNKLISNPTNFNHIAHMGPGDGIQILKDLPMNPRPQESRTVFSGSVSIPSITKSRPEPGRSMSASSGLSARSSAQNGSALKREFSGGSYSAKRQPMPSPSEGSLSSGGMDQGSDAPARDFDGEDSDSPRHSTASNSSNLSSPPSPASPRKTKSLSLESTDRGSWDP

[30] = molecular target: Calcium/calmodulin-dependent protein kinase type II subunit gamma (Homo sapiens, UniProt Q13555); assay type: functional
[31] = molecular target: Serine/threonine-protein kinase 17A (Homo sapiens, UniProt Q9UEE5); assay type: functional
[32] = molecular target: Casein kinase I isoform gamma-1 (Homo sapiens, UniProt Q9HCP0); assay type: functional;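 further: measured as the CSNK1G1 member of a kinome profiling panel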
[33] = molecular target: Fibroblast growth factor receptor 1 (Homo sapiens, UniProt P11362); assay type: functional
Fibroblast growth factor receptor 1, sequence (P11362 whole entry): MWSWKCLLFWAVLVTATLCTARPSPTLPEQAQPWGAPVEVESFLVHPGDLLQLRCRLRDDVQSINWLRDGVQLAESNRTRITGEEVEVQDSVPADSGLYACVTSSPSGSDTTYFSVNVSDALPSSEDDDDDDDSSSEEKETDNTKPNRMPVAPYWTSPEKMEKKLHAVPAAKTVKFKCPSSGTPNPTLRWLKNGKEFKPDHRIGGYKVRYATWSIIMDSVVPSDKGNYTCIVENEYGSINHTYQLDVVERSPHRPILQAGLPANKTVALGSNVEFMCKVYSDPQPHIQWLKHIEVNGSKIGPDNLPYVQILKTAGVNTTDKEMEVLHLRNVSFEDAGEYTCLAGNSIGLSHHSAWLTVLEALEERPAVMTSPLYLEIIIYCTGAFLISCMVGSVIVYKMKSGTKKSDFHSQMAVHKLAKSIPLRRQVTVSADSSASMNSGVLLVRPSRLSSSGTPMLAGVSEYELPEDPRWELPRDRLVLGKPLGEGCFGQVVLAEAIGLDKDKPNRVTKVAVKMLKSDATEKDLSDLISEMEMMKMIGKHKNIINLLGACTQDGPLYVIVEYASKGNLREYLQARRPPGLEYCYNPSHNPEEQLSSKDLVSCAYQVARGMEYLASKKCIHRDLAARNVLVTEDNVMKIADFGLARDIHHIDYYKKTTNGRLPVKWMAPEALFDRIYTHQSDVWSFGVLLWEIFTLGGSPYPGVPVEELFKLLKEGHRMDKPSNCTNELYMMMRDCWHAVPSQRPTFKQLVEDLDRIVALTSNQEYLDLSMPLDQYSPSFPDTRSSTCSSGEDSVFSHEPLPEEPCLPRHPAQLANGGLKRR

[34] = molecular target: Ribosomal protein S6 kinase beta-1 (Homo sapiens, UniProt P23443); assay type: functional;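 further: measured as one member of a kinome-wide profiling panel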
[35] = molecular target: Ephrin type-A receptor 2 (Homo sapiens, UniProt P29317); assay type: functional;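 further: EPHA2 tested as one member of a kinome-wide kinase panel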
[36] = molecular target: Bifunctional protein GlmU (Mycobacterium tuberculosis, UniProt P9WMN3); test: Inhibitors of Mycobacterial Glucosamine-1-phosphate acetyl transferase (GlmU). Secondary screen.; design: species or system Mycobacterium tuberculosis H37Rv
[37] = molecular target: T1, Rac GTPase-activating protein 1 (Homo sapiens, UniProt Q9H0H5); test: MgcRacGAP GTPase-activating activity inhibitors, confirmation, biochemical, ADP Hunter fluorescence, primary and confirmatory (AID 624330); assay type: functional
T1 sequence (Q9H0H5 whole entry): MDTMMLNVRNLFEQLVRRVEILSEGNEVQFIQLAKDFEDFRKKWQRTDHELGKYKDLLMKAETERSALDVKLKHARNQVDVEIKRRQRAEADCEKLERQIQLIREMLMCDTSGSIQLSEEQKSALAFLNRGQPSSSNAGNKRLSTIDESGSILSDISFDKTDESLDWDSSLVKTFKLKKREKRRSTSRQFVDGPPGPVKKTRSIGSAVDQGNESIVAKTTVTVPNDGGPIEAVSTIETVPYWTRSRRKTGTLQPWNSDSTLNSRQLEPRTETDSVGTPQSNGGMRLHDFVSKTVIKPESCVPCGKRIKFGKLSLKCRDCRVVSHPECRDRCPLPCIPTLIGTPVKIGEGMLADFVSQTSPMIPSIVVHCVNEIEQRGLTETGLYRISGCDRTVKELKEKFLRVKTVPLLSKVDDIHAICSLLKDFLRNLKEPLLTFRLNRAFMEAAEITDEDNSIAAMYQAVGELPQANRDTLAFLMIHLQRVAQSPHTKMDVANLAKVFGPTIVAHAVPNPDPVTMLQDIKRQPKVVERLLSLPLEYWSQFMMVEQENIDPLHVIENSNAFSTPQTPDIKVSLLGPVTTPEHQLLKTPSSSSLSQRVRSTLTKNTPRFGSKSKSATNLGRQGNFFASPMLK

## Clc1cc(NC2CCCCC2)nc(-c2c[nH]c3ncccc23)n1
[1]
  Ki: 2510 nM (active)
[2]
  Ki: > 1000 nM (inactive)
[3]
  Ki: > 2000 nM (inactive)
[4]
  Ki: > 10000 nM (inactive)
[5]
  Ki: 2000 nM (active)
[6]
  Ki: 1260 nM (active)
[7]
  Ki: > 3980 nM (inactive)
[8]
  Ki: > 3160 nM (inactive)
[9]
  Ki: 6310 nM (active)
[10]
  Ki: 631 nM (active)
[11]
  Ki: > 1580 nM (inactive)
[12]
  Ki: > 3160 nM (inactive)
[13]
  Ki: 126 nM (active)
[14]
  Ki: 3160 nM (active)
[15]
  Ki: 501 nM (active)
[16]
  Ki: 251 nM (active)
[17]
  Ki: 398 nM (active)
[18]
  Ki: > 2000 nM (inactive)
[19]
  Ki: 398 nM (active)
[20]
  Ki: > 7940 nM (inactive)
[21]
  Ki: > 1580 nM (inactive)
[22]
  Ki: > 100 nM (inactive)
[23]
  Ki: > 1580 nM (inactive)
[24]
  Ki: 1260 nM (active)
[25]
  Ki: 1260 nM (active)
[26]
  Ki: > 3980 nM (inactive)
[27]
  Ki: 3160 nM (active)
[28]
  Ki: > 1580 nM (inactive)
[29]
  Ki: 39.8 nM (active)
[30]
  Ki: 1580 nM (active)
[31]
  Ki: > 2510 nM (inactive)
[32]
  Ki: 2510 nM (active)
[33]
  Ki: > 3980 nM (inactive)
[34]
  Ki: 501 nM (active)
[35]
  Ki: > 3160 nM (inactive)

## Cc1ccc(/C=C2/C(=O)c3ccc(C(=O)O)cc3C2=O)o1
[36]
  IC50: 174000 nM (active)
[37]
  IC50: 294000 nM (active)
